In US20230038201A1, “TRANSFER FILM, PHOTOSENSITIVE MATERIAL, PATTERN FORMING METHOD, MANUFACTURING METHOD OF CIRCUIT BOARD, AND MANUFACTURING METHOD OF TOUCH PANEL” (FUJIFILM Corporation, priority 2020, published 2023):
Where two headings read alike, the source gives them in different places.

Key:
[1] = Measurement of ε365 and ε365/ε313 of compound β (molar absorption coefficients in acetonitrile); type: physicochemical; set-up: key to ε365 of Compound β: molar absorption coefficient at 365 nm in (cm·mol/L)^−1; conditions: for ε365/ε313: compound β
Description: (Measurement and Evaluation of ε365 and ε365/ε313)
A molar absorption coefficient ((cm·mol/L)^−1, “ε365”) of the compound β at 365 nm and a molar absorption coefficient ((cm·mol/L)^−1, “ε313”) of the compound β at 313 nm were obtained, and a value (ε365/ε313) obtained by divided ε365 by ε313 was obtained.
The ε365 and ε313 of the compound β are molar absorption coefficients measured by dissolving the compound β in acetonitrile. In a case where the compound β was insoluble in acetonitrile, a solvent for dissolving the compound β may be appropriately changed.

[2] = Measurement of pKa of compound β in ground state (acid titration, 0.1 N HCl, methanol/water); conditions: for pKa: methanol/water mixture
[3] = molar absorption coefficient at 365 nm
[4] = molar absorption coefficient at 365 nm in acetonitrile
[5] = molar absorption coefficient at 365 nm, compound β alone
[6] = molar absorption coefficient at 365 nm, in acetonitrile
[7] = pKa of Compound β in ground state
[8] = pKa of Compound β in ground state, compound β alone
[9] = pKa of Compound β in ground state, compound β, ground state
[10] = pKa of Compound β in ground state, ground state
[11] = pKa in ground state, compound β, pKa of the conjugate acid for nitrogen-containing aromatic compounds
[12] = compound β, pKa of the conjugate acid for nitrogen-containing aromatic compounds

SMILES | ε365 of Compound β [1] | ε365 of Compound β ([1]; compound β alone) | ε365 of Compound β [1, 3] | ε365 of Compound β [1, 4] | ε365 of Compound β [1, 5] | ε365 of Compound β [1, 6] | pKa [2, 7] | pKa [2, 8] | pKa [2, 9] | pKa [2, 10] | pKa [2, 11] | further results
Cc1cc(C)c2c(C)cc(C)nc2c1 [2,4,5,7-Tetramethylquinoline] | <10 | <10 | <10 | <10 (cm·mol/L)^−1 | <10 | <10 (cm·mol/L)^−1 | 6.23 | 6.23 | 6.23 | 6.23 | – | –
CC(=O)c1ccncc1 [4-Acetylpyridine] | – | – | – | – | – | – | – | – | – | – | 3.1 | ε365/ε313 ([1]; in acetonitrile): <1
O=C(c1ccccc1)c1ccncc1 [4-Benzoylpyridine] | – | – | – | – | – | – | – | – | – | – | 2.9 | ε365/ε313 ([1]; in acetonitrile): <1
c1cnc2c(c1)CCCC2 [5,6,7,8-Tetrahydroquinoline] | – | – | – | – | – | – | – | – | – | – | 5.9 | ε365/ε313 ([1]; in acetonitrile): <1
CCCCc1ncc(C)c2ccccc12 [Example 1-n-Butyl-4-methylisoquinoline, 1-n-Butyl-4-methylisoquinoline] | <10 | <10 | <10 | <10 (cm·mol/L)^−1 | <10 | <10 (cm·mol/L)^−1 | 5.9 | 5.9 | 5.9 | 5.9 | – | –
CCCCc1nccc2ccccc12 [Example 1-n-Butylisoquinoline, 1-n-Butylisoquinoline] | <10 | <10 | <10 | <10 (cm·mol/L)^−1 | <10 | <10 (cm·mol/L)^−1 | 5.27 | 5.27 | 5.27 | 5.27 | – | –
Clc1ccccn1 [Example 2-Chloropyridine, 2-Chloropyridine] | <10 | <10 | <10 | <10 (cm·mol/L)^−1 | <10 | <10 (cm·mol/L)^−1 | – | – | – | – | – | pKa of Compound β in ground state [2]: 0.70; pKa of Compound β in ground state ([2]; compound β alone): 0.70; pKa of Compound β in ground state ([2]; compound β, ground state): 0.70; pKa of Compound β in ground state ([2]; ground state): 0.70
Nc1ccncc1 [Example 4-Aminopyridine, 4-Aminopyridine] | <100 | <100 | <100 | <100 (cm·mol/L)^−1 | <100 | <100 (cm·mol/L)^−1 | 9.2 | 9.2 | 9.2 | 9.2 | – | –
c1ccncc1 [Example B11, pyridine] | <10 | <10 | <10 | <10 (cm·mol/L)^−1 | <10 | <10 (cm·mol/L)^−1 | – | – | – | – | – | –
Nc1ccncc1 [Example B13, 4-aminopyridine] | – | – | – | – | – | – | – | – | – | – | – | pKa (physchem): 9.2
Clc1ccccn1 [Example B14, 2-chloropyridine] | – | – | – | – | – | – | – | – | – | – | – | pKa [2]: 0.7

More lines, main results first:

ε365 of Compound β [1] | ε365 of Compound β ([1]; compound β alone) | ε365 of Compound β [1, 3] | ε365 of Compound β [1, 4] | ε365 of Compound β [1, 5] | ε365 of Compound β [1, 6] | pKa [2, 7] | pKa [2, 8] | pKa [2, 9] | pKa [2, 10] | pKa [2, 11] | SMILES | further results
<10 | <10 | <10 | <10 (cm·mol/L)^−1 | <10 | <10 (cm·mol/L)^−1 | 6.51 | 6.51 | 6.51 | 6.51 | – | COc1cc(C)nc2ccccc12 [Example 2-Methyl-4-methoxyquinoline, 2-Methyl-4-methoxyquinoline] | –
6300 | 6300 | 6300 | 6300 (cm·mol/L)^−1 | 6300 | 6300 (cm·mol/L)^−1 | 5.4 | 5.4 | 5.4 | 5.4 | – | Cc1c2ccccc2nc2ccccc12 [Example 9-Methylacridine, 9-Methylacridine] | –
– | – | – | – | >1000 | – | 4.04 | 4.04 | 4.04 | 4.04 | – | c1ccc(-c2c3ccccc3nc3ccccc23)cc1 [Example 9-Phenylacridine, 9-Phenylacridine] | –
<10 | <10 | <10 | <10 (cm·mol/L)^−1 | <10 | <10 (cm·mol/L)^−1 | 4.69 | 4.69 | 4.69 | 4.69 | 4.7 | c1ccc2cnccc2c1 [Example B1, isoquinoline] | ε365/ε313 ([1]; in acetonitrile): <1; pKa in ground state [2, 12]: 4.69
<10 | <10 | <10 | <10 (cm·mol/L)^−1 | <10 | <10 (cm·mol/L)^−1 | 4.15 | 4.15 | 4.15 | 4.15 | 4.2 | c1ccc2ncccc2c1 [Example B2, quinoline] | ε365/ε313 ([1]; in acetonitrile): <1; pKa in ground state [2, 12]: 4.15
4900 | 4900 | 4900 | 4900 (cm·mol/L)^−1 | 4900 | 4900 (cm·mol/L)^−1 | 4.67 | 4.67 | 4.67 | 4.67 | 4.7 | c1ccc2nc3ccccc3cc2c1 [Example B3, acridine] | ε365/ε313 ([1]; in acetonitrile): >3; pKa in ground state [2, 12]: 4.67
– | – | – | – | – | – | – | – | – | – | 5.27 | CCCCc1nccc2ccccc12 [Example B4, 1-n-butylisoquinoline] | –
– | – | – | – | – | – | – | – | – | – | 5.9 | CCCCc1ncc(C)c2ccccc12 [Example B5, 1-n-butyl-4-methylisoquinoline] | –
<10 | <10 | <10 | <10 (cm·mol/L)^−1 | <10 | <10 (cm·mol/L)^−1 | – | – | – | – | – | Cc1nccc2ccccc12 [Example B6, 1-Me-isoquinoline] | pKa of Compound β in ground state [2]: 5.31; pKa of Compound β in ground state ([2]; compound β alone): 5.31; pKa of Compound β in ground state ([2]; compound β, ground state): 5.31; pKa in ground state [2, 12]: 5.31; pKa of Compound β in ground state ([2]; ground state): 5.31
– | – | – | – | – | – | – | – | – | – | 6.23 | Cc1cc(C)c2c(C)cc(C)nc2c1 [Example B7, 2,4,5,7-tetramethylquinoline] | –
– | – | – | – | – | – | – | – | – | – | 6.51 | COc1cc(C)nc2ccccc12 [Example B8, 2-methyl-4-methoxyquinoline] | –
– | – | – | – | – | – | – | – | – | – | 5.4 | Cc1c2ccccc2nc2ccccc12 [Example B9, 9-methylacridine] | –
– | – | – | – | – | – | – | – | – | – | 4.04 | c1ccc(-c2c3ccccc3nc3ccccc23)cc1 [Example B10, 9-phenylacridine] | –
<10 | – | <10 | <10 (cm·mol/L)^−1 | <10 | <10 (cm·mol/L)^−1 | 5.67 | 5.67 | 5.67 | 5.67 | 5.67 | Cc1cc(C)c2ccccc2n1 [Example B12, 2,4-dimethylquinoline] | –
– | – | – | – | – | – | – | – | – | – | 3.8 | c1ccc2c(c1)cnc1ccccc12 [Phenanthridine] | ε365/ε313 ([1]; in acetonitrile): <1
